Values quoted from earlier work as cited in patent publication US11926624B2 (INTERNATIONAL PAPER COMPANY, priority 2018, dated 2024).
Like-named read-outs stand apart in the source and are kept apart here.

Tests used:
[1] = target: T1, Renilla Luciferase (Renilla reniformis, UniProt P27652); settings: for Initial Intensity / Total Light / Aem: with Renilla Luciferase; for Initial Intensity: luminescent intensity as % initial intensity; for Total Light: native = 100
T1 sequence (P27652 1-311): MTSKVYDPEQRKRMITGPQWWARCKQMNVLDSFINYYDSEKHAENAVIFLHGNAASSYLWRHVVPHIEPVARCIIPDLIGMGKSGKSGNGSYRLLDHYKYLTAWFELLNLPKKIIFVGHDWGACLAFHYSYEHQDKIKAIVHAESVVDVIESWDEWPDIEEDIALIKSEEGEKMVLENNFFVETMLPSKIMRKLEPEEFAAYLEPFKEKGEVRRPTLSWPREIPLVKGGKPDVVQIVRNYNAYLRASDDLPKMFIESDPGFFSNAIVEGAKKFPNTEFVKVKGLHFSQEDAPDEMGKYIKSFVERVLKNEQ

[2] = tested on: Gaussia luciferase (Gluc)
[3] = target: T2, aequorin (Aequorea victoria, UniProt P07164); settings: for luminescence intensity relative to coelenterazine (native form): coelenterazine-aequorin/apoaequorin complex
T2 sequence (P07164 8-196): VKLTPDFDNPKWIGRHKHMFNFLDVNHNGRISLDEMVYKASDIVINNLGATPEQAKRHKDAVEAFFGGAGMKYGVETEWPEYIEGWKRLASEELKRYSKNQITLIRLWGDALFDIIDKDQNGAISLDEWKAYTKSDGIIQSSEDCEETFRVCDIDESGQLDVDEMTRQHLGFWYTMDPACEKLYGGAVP

| Molecule | Total Light [1] [%] | substrate quality for Renilla luciferase [1] | Aem [1] [nm] | luminescence intensity relative to coelenterazine (native form) [3] | other results |
| --- | --- | --- | --- | --- | --- |
| 8-benzyl-2-(4-hydroxybenzyl)-6-(4-hydroxyphenyl)imidazo[1,2-α]pyrazin-3(7H)-one [coelenterazine] | 100 | – | – | – | Initial Intensity ([1]; listed as native): 45%; Initial Intensity ([1]; listed as native coelenterazine): about 45% |
| O=c1c(Cc2ccccc2)nc2c(Cc3ccccc3)[nH]c(-c3ccccc3)cn1-2 [coelenterazine 400a, (2-2′(4-dehydroxy)) coelenterazine] | – | good substrate | – | – | emission maximum [1]: about 400 nm; oxidation with Gaussia luciferase [2]: does not oxidize well |
| O=c1c(Cc2ccc(O)cc2)nc2c(CC3CCCC3)[nH]c(-c3ccc(O)cc3)cn1-2 [coelenterazine cp] | 23 | – | 470 | – | – |
| O=c1c(Cc2ccc(F)cc2)nc2c(Cc3ccccc3)[nH]c(-c3ccc(O)cc3)cn1-2 [coelenterazine f] | 28 | – | 473 | about 20 times | Initial Intensity [1]: 45%; emission maximum longer than that of the native form ([3]; coelenterazine-apoaequorin complex): about 8 nm |
| O=c1c(Cc2ccc(F)cc2)nc2c(CC3CCCC3)[nH]c(-c3ccc(O)cc3)cn1-2 [coelenterazine fcp] | – | poor substrate | – | about 135 times | – |
